Reference: patent US11632953B2, “Method for controlling hematophagous or sap-feeding arthropods” (Board of Supervisors of Louisiana State University and …, priority 2016, dated 2023)
Like-named read-outs stand apart in the source and are kept apart here.

Experiments:
[1] = tested on: Aedes aegypti mosquitoes; assay: saliva collection from live mosquito after injection; assay type: in vivo; details: control 1.4 μL
From the text: We investigated the influence of Katp modulators on mosquito salivation and blood feeding. We employed an established assay to collect the saliva from a live mosquito.

[2] = tested on: Amblyomma americanum; assay: tick toxicity (compound in blood meal or injected); assay type: in vivo; details: for mortality rate: in blood meal
From the text: A failure to osmoregulate during blood feeding would result in a buildup of ions at toxic concentrations into the hemocoel.

[3] = tested on: isolated tick salivary gland; assay: ion secretion in saliva of the isolated tick salivary gland; design: species or system Amblyomma americanum
[4] = tested on: Chickungunya virus; assay: infection of mosquitoes by virus after blood meal; details: in vivo
[5] = tested on: sugar and bitter cells of mosquito mouthparts; assay: electrophysiological recordings of maxilla gustatory sensilla
[6] = tested on: Amblyomma americanum; assay: tick blood feeding with compound included in the blood meal; assay type: in vivo; details: for average detachments during blood feeding: control 0.11
From the text: All ticks were observed attempting to feed by including rhodamine B, a fluorescent tracer, in the blood meal.

[7] = tested on: isolated tick salivary gland; assay: fluid secretion (salivation) in the isolated tick salivary gland, modified Ramsay assay; design: species or system Amblyomma americanum; details: for total salivation volume: control 150 nL/5 min; for IC50: read-out: IC50 inhibition of salivation
[8] = tested on: Aedes aegypti mosquitoes; assay: mosquito blood feeding with compound exposure; assay type: in vivo; details: compound added to blood
From the text: Tolbutamide and glybenclamide are inhibitors of ATP-gated Kir channels.

[9] = tested on: mosquitoes; details: in vivo; cited from earlier work
[10] = tested on: mosquito Kin channels; details: in vitro; cited from earlier work

CC(N=C(NC#N)Nc1ccncc1)C(C)(C)C (racemic) [pinacidil, (±)-N-Cyano-N′-4-pyridinyl-N″-(1,2,2-trimethylpropyl)guanidine]
secreted saliva volume [1]: 0.3 µL | mortality rate ([2]; day 1): 65% | mortality rate ([2]; day 2): 72% | mortality rate ([2]; day 3): 88% | mortality rate ([2]; day 4): 94% | mortality rate ([2]; day 5): 99% | cations (K+ and Na+) concentrations excreted from the salivary glands [3]: significant reduction | infection of mosquitoes by the virus after feeding on a blood meal [4]: inhibited infection | response of gustatory sensilla cells [5]: elicits a spike in the sugar and bitter cells | reduction of volume of blood ingested ([6]; 400 μM in blood meal, throughout the course of feeding): up to 15 fold | average detachments during blood feeding [6]: 2.1 times per feeding | volume of blood ingested ([6]; day 6 of feeding, 400 μM, control 16±4): 1.2±0.3 μL per day | total salivation volume ([7]; 600 μM pinacidil after pre-exposure to ATP): 142 nL/5 min | total salivation volume ([7]; 600 μM pinacidil): 40 nL/5 min | Effect on Salivation at 10 minutes (reduction) ([7]; 10 minutes, isolated tick salivary gland): Reduced ~98% | IC50 ([7]; Amblyomma americanum, 10 min, 10 min of salivation): 320000 nM | IC50 ([7]; Amblyomma americanum, 20 min, 20 min of salivation): 250000 nM | IC50 ([7]; Amblyomma americanum, 0.5 h, 30 min of salivation): 120000 nM | reduction of salivary output / saliva secretion compared to control ([7]; isolated tick salivary gland): 97% | reduction of total volume of blood consumed [8]: 99%

Cn1c(=O)c2c(ncn2Cc2ccc(C(C)(C)C)cc2)n(C)c1=O [VU063]
secreted saliva volume [1]: 0.1 µL | pattern of mortality as a function of time compared with pinacidil ([2]; exposed while feeding): nearly-identical pattern of mortality | cations (K+ and Na+) concentrations excreted from the salivary glands [3]: significant reduction | tick body weights ([6]; VU063 at 100 μM in blood meal): not statistically different from that of unfed ticks | volume of ingested blood ([6]; compound in blood meal, VU063 at 100 μM): below the limits of detection | average detachments during blood feeding [6]: 3.6 times per feeding | effect on salivation in the isolated salivary gland [7]: eliminated salivation | IC50 ([7]; 10 min of salivation): 772 nM | IC50 ([7]; 20 min of salivation): 560 nM | IC50 ([7]; 30 min of salivation): 410 nM | effect of pre-exposure of the gland to ATP on inhibition of salivation ([7]; pre-exposure to ATP): negated the inhibitory effect | reduction of total volume of blood consumed [8]: 99%

CCC(=O)N1c2ccc(S(=O)(=O)Nc3cccc(OC)c3)cc2CC1C (stereo not shown) [VU625]
topical toxicity to mosquitoes [9]: not topically toxic | IC50 [10]: ~100 nM
